According to ChEMBL document CHEMBL1128090, “Substituted 2,4-diaminoquinazolines and 2,4-diamino-8-alkylpurines as antagonists of the neurokinin-2 (NK2) receptor” (Bioorg Med Chem Lett, 1995):

Legend:
Substance-K receptor [1] = molecular target: T1, Substance-K receptor (Homo sapiens, UniProt P21452); test: Displacement of [3H]NKA from the cloned human Tachykinin receptor 2 which has been expressed in baculovirus infected insect sf21 cells
T1 sequence (P21452 whole entry): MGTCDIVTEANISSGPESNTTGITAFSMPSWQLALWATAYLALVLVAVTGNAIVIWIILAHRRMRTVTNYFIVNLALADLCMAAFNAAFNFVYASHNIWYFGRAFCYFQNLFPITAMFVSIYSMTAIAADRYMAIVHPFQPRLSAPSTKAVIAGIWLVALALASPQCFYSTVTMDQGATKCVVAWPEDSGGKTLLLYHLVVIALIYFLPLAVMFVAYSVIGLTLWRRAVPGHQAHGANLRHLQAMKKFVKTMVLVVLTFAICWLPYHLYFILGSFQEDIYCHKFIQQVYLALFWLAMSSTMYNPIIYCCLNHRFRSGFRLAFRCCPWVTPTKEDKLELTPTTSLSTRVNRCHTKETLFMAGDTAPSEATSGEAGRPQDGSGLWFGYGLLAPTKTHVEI

Substance-K receptor [2] = molecular target: T2, Substance-K receptor (Mesocricetus auratus, UniProt P51144); test: Inhibition constant for displacement of [3H]NKA from Tachykinin receptor 2 found in hamster urinary bladder membrane (HUBM); format: cell membranes
T2 sequence (P51144 whole entry): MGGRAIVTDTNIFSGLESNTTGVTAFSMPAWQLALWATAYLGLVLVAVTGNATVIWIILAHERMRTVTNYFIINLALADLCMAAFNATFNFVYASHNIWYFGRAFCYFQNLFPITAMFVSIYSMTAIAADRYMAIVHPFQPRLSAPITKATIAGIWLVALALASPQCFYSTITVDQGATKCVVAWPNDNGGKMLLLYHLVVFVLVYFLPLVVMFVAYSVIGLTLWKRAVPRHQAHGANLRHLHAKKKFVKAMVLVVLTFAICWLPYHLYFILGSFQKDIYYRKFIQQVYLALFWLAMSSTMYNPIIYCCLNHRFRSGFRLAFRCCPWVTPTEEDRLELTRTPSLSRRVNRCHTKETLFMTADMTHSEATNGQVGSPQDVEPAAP

Cavia porcellus = species on record: Cavia porcellus; test: Compound was tested for the inhibition of contraction induced by [b-Ala8-NKA(4-10)] in guinea pig trachea; format: functional
Substance-K receptor [3] = molecular target: T1, Substance-K receptor; test: Inhibition constant for displacement of [3H]NKA from the cloned human NK2 receptor
Substance-K receptor [4] = molecular target: T1, Substance-K receptor; test: Inhibition constant for displacement of [3H]-NKA from the cloned human NK2 receptor which has been expressed in baculovirus infected insect sf21 cells

| Ki (Substance-K receptor [1]) [µM] | Ki (Substance-K receptor [2]) [µM] | Structure (SMILES) | further results |
| --- | --- | --- | --- |
| 3.49 |  | CCCNc1nc(Nc2ccc(Cl)cc2)c2[nH]c(C(C)C)nc2n1 |  |
|  | 0.82 | COC(=O)c1ccc2c(Nc3ccc(Cl)cc3)nc(N3CCOCC3)nc2c1 |  |
|  | 58.7 | CC(C)NC(=O)c1ccc2c(Nc3ccc(Cl)cc3)nc(N3CCOCC3)nc2c1 |  |
| 1.77 |  | CC(C)c1nc2nc(N3CCC(O)CC3)nc(Nc3ccc(C(F)(F)F)cc3)c2[nH]1 | Kb (Cavia porcellus): > 100 µM |
|  | 0.015 | CC(C)N1Cc2c(Nc3ccc(Cl)cc3)nc(N3CCOCC3)nc2C1=O | Ki (Substance-K receptor [3]): 0.55 µM |
| 4.36 |  | CC(C)c1nc2[nH]c(N3CCC4(CC3)OCCO4)nc(Nc3ccc(Cl)cc3)c-2n1 |  |
| 2.55 |  | CC(C)c1nc2[nH]c(NCCCN)nc(Nc3ccc(Cl)cc3)c-2n1 |  |
| 5.58 |  | CC(C)c1nc2[nH]c(NCc3ccccc3)nc(Nc3ccc(Cl)cc3)c-2n1 |  |
| 2.85 |  | CC(C)c1nc2nc(N3CCOCC3)nc(Nc3ccc(C(F)(F)F)cc3)c2[nH]1 | Kb (Cavia porcellus): > 100 µM |
| 2.24 |  | CC(C)c1nc2nc(N3CCC(O)(c4ccccc4)CC3)nc(Nc3ccc(Cl)cc3)c2[nH]1 | Kb (Cavia porcellus): 100 µM |
| 5.89 |  | CC(C)c1nc2[nH]c(N3CCC(=O)CC3)nc(Nc3ccc(Cl)cc3)c-2n1 |  |
| 3.44 |  | COC1(OC)CCN(c2nc(Nc3ccc(Cl)cc3)c3[nH]c(C(C)C)nc3n2)CC1 |  |
|  | 0.52 | CCc1nc2nc(N3CCOCC3)nc(Nc3ccc(Cl)cc3)c2[nH]1 | Ki (Substance-K receptor [3]): 6.94 µM |
|  | 6.6 | Cc1nc2[nH]c(N3CCOCC3)nc(Nc3ccc(Cl)cc3)c-2n1 | Ki (Substance-K receptor [3]): 17.5 µM |
|  | 29.5 | Clc1ccc(Nc2nc(N3CCOCC3)nc3ccccc23)cc1 |  |
| 2.1 |  | CC(C)c1nc2nc(N3CCC(C)(O)CC3)nc(Nc3ccc(Cl)cc3)c2[nH]1 | Kb (Cavia porcellus): 10.7 µM |
|  | 0.054 | CCCc1nc2nc(N3CCOCC3)nc(Nc3ccc(Cl)cc3)c2[nH]1 | Ki (Substance-K receptor [3]): 2.34 µM |
|  | 20.3 | O=C(O)c1ccc2c(Nc3ccc(Cl)cc3)nc(N3CCOCC3)nc2c1 |  |
|  | 0.067 | CC(C)c1nc2[nH]c(N3CCOCC3)nc(Nc3ccc(Cl)cc3)c-2n1 | Kb (Cavia porcellus): 70.8 µM; Ki (Substance-K receptor [4]): 3.07 µM |
